Data reported in patent US10758596B2, “Compositions and methods to prevent and treat biofilms” (ZIOLASE, LLC, priority 2011, dated 2020).
Values after ≈ are worked out from the molar mass of the structure shown. Where two headings read alike, the source gives them in different places.

Legend:
Type in all cases: cell-based
P. aeruginosa PAO1 [1] = assay: Biofilm mass formation (Crystal Violet staining), P. aeruginosa PAO1 biofilm; details: antibiotic alone 1/4 MIC added to 24 hour preformed biofilm
P. aeruginosa PAO1 [2] = assay: Bacterial cell viability (Resazurin assay), P. aeruginosa PAO1 biofilm
Protocol: (§1) Various parameters that were evaluated in each part of the analysis include: 1) Biofilm mass formation (% inhibition—by Crystal Violet staining method); 2) Bacterial cell viability (% inhibition—by Resazurin assay); and 3) Bacterial cell growth (by Colony Counting—CFU/ml plating).
The “U” corresponds to the International Units for the enzyme in each testing well. This dose was further used in subsequent experiments. […] In an old stage (72 hour of growth), the biofilm formation was still inhibited by about 50.0%. […]
(§2) The experimental design for the second strain on the preformed biofilm included: • Strain: P. aeruginosa PAO1 • Temperature: 35±2° C. • Incubation Conditions: Static • Time Points: Preformed biofilm for 24 hours, 24 hours of further growth • Treatment: (added to well containing a suspension of P. aeruginosa PAO1 ˜10^7 CFU/ml) • Solvent 1: 50% glycerol containing 1% Triton™ X-100 and 25 mM potassium phosphate, pH 6.5 • Solvent 2: 25 mM potassium phosphate, pH 6.5 • SIGMA Trehalase: 0.092 UI • Dialyzed Trehalase: 0.092 UI • Parameters Assessed: • Biofilm mass formation (staining with crystal violet 0.06%) • Cells viability (incubation with resazurin) • Cell growth by colony counting (CFU/mL)

S. aureus ATCC 25923 [3] = assay: Bacterial cell viability (Resazurin assay), S. aureus ATCC 25923
Protocol: as §1
(§3) There now follows greater details about tests that show the effect of Trehalase in gram-positive bacteria (MRSA and MSSA S. aureus). […] It inhibited viability of bacterial cells in the biofilm (about 84%, about 81%, and about 63% correspondingly by Resazurin assay), and reduced the bacterial cell growth in the 24 hour biofilm (about 1.5 log by CFU/ml compared to the Control).
as §2, with “first” for “second”, “early” for “preformed”, “S. aureus ATCC25923” for “P. aeruginosa PAO1”, “Points:” for “Points: Preformed biofilm for 24 hours,”, “hours” for “hours of further growth”
as §2, with “first” for “second”, “S. aureus ATCC25923” for “P. aeruginosa PAO1”, “(CFU/mL) […]” for “(CFU/mL)”

S. aureus ATCC 25923 [4] = assay: MIC by CLSI guidelines, S. aureus ATCC 25923
Text: There is strong reproducibility of the data generated with S. aureus ATCC25923 (similar activity among different experiments).

S. aureus ATCC 25923 [5] = assay: Biofilm mass formation (Crystal Violet staining), S. aureus ATCC 25923 biofilm; details: antibiotic alone 1/4 MIC; 24 hour grown biofilm
Protocol: as §1, §3
as §2, with “first” for “second”, “early” for “preformed”, “S. aureus ATCC25923” for “P. aeruginosa PAO1”, “Points:” for “Points: Preformed biofilm for 24 hours,”, “hours” for “hours of further growth”, “(CFU/mL) […]” for “(CFU/mL)”

S. aureus ATCC 25923 [6] = assay: Bacterial cell growth by colony counting (CFU/mL), S. aureus ATCC 25923 biofilm and planktonic cells; details: antibiotic alone 1/4 MIC; 24 hour grown biofilm
Protocol: as §1, §3
as §2, with “first” for “second”, “early” for “preformed”, “S. aureus ATCC25923” for “P. aeruginosa PAO1”, “Points:” for “Points: Preformed biofilm for 24 hours,”, “hours” for “hours of further growth”, “(CFU/mL) […]” for “(CFU/mL)”

S. aureus ATCC33591 [7] = assay: Biofilm mass formation, S. aureus ATCC33591 24 hour grown biofilm; details: Trehalase 0.092 UI/well, antibiotic 1/4 MIC; early (24 hour grown) biofilm
Protocol: as §1

S. aureus ATCC33591 [8] = assay: MIC, S. aureus ATCC33591
Text: Neither Gentamicin (GENT), nor Vancomycin (VAN) in sub-MICc doses (¼/MIC) triggered biofilm induction response.

S. aureus 3-Belgium = assay: MIC, S. aureus 3-Belgium
[9] = test system: S. aureus strains (MSSA Oxford, MSSA ATCC 35556, MRSA ATCC 25923); assay: MIC in broth (CLSI) in the presence and absence of Trehalase, selected S. aureus strains; details: Trehalase 0.092 UI, 24 hours
Protocol: There was testing of Trehalase on Clinical Isolates (S. aureus strains: Oxford, ATCC35556, and ATCC 25923 as the reference strain) at a time-point: 24 hours of biofilm growth.
The MIC determination with selected S. aureus strains proceeded as a first step. The materials and methods included:
S. aureus strains: Oxford; ATCC35556 and ATCC25923 (as reference strain)
In vitro assay: MIC in broth (according to CLSI guidelines)
Antibiotic concentration: two-fold series dilution from 16 to 0.0078 μg/mL
Incubation: T 37° C.; static condition

[10] = GENT/VAN experiment, Trehalase 0.092 UI/well, antibiotic 1/4 MIC, 24 hour grown biofilm

Row | Compound | increase of biofilm mass formation (BIR) compared to Control level (P. aeruginosa PAO1 [1]) | increased biofilm mass (biofilm induction response, BIR) compared to Negative Control (S. aureus ATCC 25923 [5]) | inhibition of biofilm cell viability (Resazurin assay) (S. aureus ATCC 25923 [3]; [10]) | effect on cell growth (S. aureus ATCC 25923 [6]) | inhibition / reduction of biofilm mass formation compared to Control (S. aureus ATCC33591 [7]) | MIC (S. aureus ATCC 25923 [4]) [µg/mL] | further results
1 | CC(C)(O/N=C(\C(=O)N[C@@H]1C(=O)N2C(C(=O)[O-])=C(C[n+]3ccccc3)CS[C@H]12)c1csc(N)n1)C(=O)O [Ceftazidime] | about 1.6 |  |  |  |  |  | inhibition of cell viability (Resazurin assay) (P. aeruginosa PAO1 [2]; Pseudomonas aeruginosa, 48 h): 25-50%; inhibition of biofilm cell viability (Resazurin assay) (S. aureus ATCC 25923 [3]; Staphylococcus aureus, 24 h): about 13%; MIC (S. aureus ATCC 25923 [4]; Staphylococcus aureus, ATCC25923, read-out: MIC): 8 µg/mL (≈ 14.6 µM)
2 | NC[C@H]1O[C@H](O[C@H]2[C@H](O)[C@@H](O[C@H]3O[C@H](CO)[C@@H](O)[C@H](N)[C@H]3O)[C@H](N)C[C@@H]2N)[C@H](N)C[C@@H]1O [Tobramycin] | about 1.4 |  |  |  |  |  | inhibition of cell viability (Resazurin assay) (P. aeruginosa PAO1 [2]; added at beginning, antibiotic 1/4 MIC, 24 hour grown biofilm): about 25%; inhibition of cell viability (Resazurin assay) (P. aeruginosa PAO1 [2]; added at beginning, sub-MIC antibiotic, 48 hour grown biofilm): about 25%
3 | CN[C@H](CC(C)C)C(=O)N[C@H]1C(=O)N[C@@H](CC(N)=O)C(=O)N[C@H]2C(=O)N[C@H]3C(=O)N[C@H](C(=O)N[C@H](C(=O)O)c4cc(O)cc(O)c4-c4cc3ccc4O)[C@H](O)c3ccc(c(Cl)c3)Oc3cc2cc(c3O[C@@H]2O[C@H](CO)[C@@H](O)[C@H](O)[C@H]2O[C@H]2C[C@](C)(N)[C@H](O)[C@H](C)O2)Oc2ccc(cc2Cl)[C@H]1O [Vancomycin] |  | 1.8 fold | no effect | no effect | about 20% | 2.0 (≈ 1.38 µM) | MIC (S. aureus ATCC33591 [8]; Staphylococcus aureus, ATCC33591): 2 µg/mL (≈ 1.38 µM); MIC (S. aureus 3-Belgium; Staphylococcus aureus, 3BELGIUM): 2 µg/mL (≈ 1.38 µM); effect of addition of Trehalase on MIC [9]: No significant effect
4 | Gentamicin |  | two-fold | no effect | no effect | about 10% | 2 | MIC (S. aureus ATCC33591 [8]): 2.0 µg/mL; MIC (S. aureus 3-Belgium): 32.0 µg/mL; MIC value reduction on addition of Trehalase ([9]; clinical isolates): up to 16 fold; MIC value reduction on addition of Trehalase ([9]; reference isolates): ≤ 33 fold
